Measurements: patent publication US20030224416A1, “Schizophrenia related gene” (priority 2002, published 2003)

Tested on: Kv3.1 α-subunit mRNA
Assay: Experiment 1: in situ hybridization of Kv3.1 α-subunit mRNA in brain, chronic PCP rat model of schizophrenia with antipsychotic co-treatment
Assay type: in vivo

## CN1CCN(C2=Nc3ccc(F)cc3Nc3sc4ccccc4c32)CC1.O=C(O)/C=C\C(=O)O [Y-931, 8-fluoro-12-(4-methylpiperazin-1-yl)-6H-[l]benzothieno[2,3-b][1,5]benzo-diazepine monomaleate]
ACg, PCP + drug 0.3 mg/kg/day
  Kv3.1 α-subunit mRNA expression: 15.36 ± 0.29 PSL/mm^2
ACg, PCP + drug 1 mg/kg/day
  Kv3.1 α-subunit mRNA expression: 15.10 ± 0.92 PSL/mm^2
ACg, PCP + drug 3 mg/kg/day
  Kv3.1 α-subunit mRNA expression: 15.40 ± 0.83 PSL/mm^2
ACg, PCP + drug 10 mg/kg/day
  Kv3.1 α-subunit mRNA expression: 14.82 ± 0.74 PSL/mm^2
AcbC, PCP + drug 0.3 mg/kg/day
  Kv3.1 α-subunit mRNA expression: 7.65 ± 0.40 PSL/mm^2
AcbC, PCP + drug 1 mg/kg/day
  Kv3.1 α-subunit mRNA expression: 8.40 ± 0.63 PSL/mm^2
AcbC, PCP + drug 3 mg/kg/day
  Kv3.1 α-subunit mRNA expression: 8.44 ± 0.43 PSL/mm^2
AcbC, PCP + drug 10 mg/kg/day
  Kv3.1 α-subunit mRNA expression: 8.42 ± 0.53 PSL/mm^2
AcbS, PCP + drug 0.3 mg/kg/day
  Kv3.1 α-subunit mRNA expression: 10.24 ± 0.64 PSL/mm^2
AcbS, PCP + drug 1 mg/kg/day
  Kv3.1 α-subunit mRNA expression: 11.55 ± 0.50 PSL/mm^2
AcbS, PCP + drug 3 mg/kg/day
  Kv3.1 α-subunit mRNA expression: 11.11 ± 0.27 PSL/mm^2
AcbS, PCP + drug 10 mg/kg/day
  Kv3.1 α-subunit mRNA expression: 11.26 ± 0.67 PSL/mm^2
Au1, PCP + drug 0.3 mg/kg/day
  Kv3.1 α-subunit mRNA expression: 17.02 ± 1.26 PSL/mm^2
Au1, PCP + drug 1 mg/kg/day
  Kv3.1 α-subunit mRNA expression: 18.48 ± 1.36 PSL/mm^2
Au1, PCP + drug 3 mg/kg/day
  Kv3.1 α-subunit mRNA expression: 16.76 ± 0.32 PSL/mm^2
Au1, PCP + drug 10 mg/kg/day
  Kv3.1 α-subunit mRNA expression: 17.98 ± 0.68 PSL/mm^2
CA1pd, PCP + drug 0.3 mg/kg/day
  Kv3.1 α-subunit mRNA expression: 16.80 ± 1.23 PSL/mm^2
CA1pd, PCP + drug 1 mg/kg/day
  Kv3.1 α-subunit mRNA expression: 18.34 ± 0.91 PSL/mm^2
CA1pd, PCP + drug 3 mg/kg/day
  Kv3.1 α-subunit mRNA expression: 16.47 ± 0.98 PSL/mm^2
CA1pd, PCP + drug 10 mg/kg/day
  Kv3.1 α-subunit mRNA expression: 19.18 ± 2.03 PSL/mm^2
CA2pd, PCP + drug 0.3 mg/kg/day
  Kv3.1 α-subunit mRNA expression: 24.07 ± 1.74 PSL/mm^2
CA2pd, PCP + drug 1 mg/kg/day
  Kv3.1 α-subunit mRNA expression: 20.07 ± 1.71 PSL/mm^2
CA2pd, PCP + drug 3 mg/kg/day
  Kv3.1 α-subunit mRNA expression: 21.47 ± 2.23 PSL/mm^2
CA2pd, PCP + drug 10 mg/kg/day
  Kv3.1 α-subunit mRNA expression: 22.31 ± 1.57 PSL/mm^2
CA3pd, PCP + drug 0.3 mg/kg/day
  Kv3.1 α-subunit mRNA expression: 34.10 ± 1.52 PSL/mm^2
CA3pd, PCP + drug 1 mg/kg/day
  Kv3.1 α-subunit mRNA expression: 33.99 ± 3.29 PSL/mm^2
CA3pd, PCP + drug 3 mg/kg/day
  Kv3.1 α-subunit mRNA expression: 34.72 ± 1.24 PSL/mm^2
CA3pd, PCP + drug 10 mg/kg/day
  Kv3.1 α-subunit mRNA expression: 33.90 ± 2.52 PSL/mm^2
DGgd, PCP + drug 0.3 mg/kg/day
  Kv3.1 α-subunit mRNA expression: 38.38 ± 1.53 PSL/mm^2
DGgd, PCP + drug 1 mg/kg/day
  Kv3.1 α-subunit mRNA expression: 39.21 ± 1.75 PSL/mm^2
DGgd, PCP + drug 3 mg/kg/day
  Kv3.1 α-subunit mRNA expression: 36.93 ± 2.53 PSL/mm^2
DGgd, PCP + drug 10 mg/kg/day
  Kv3.1 α-subunit mRNA expression: 36.11 ± 2.06 PSL/mm^2
DLStr, PCP + drug 0.3 mg/kg/day
  Kv3.1 α-subunit mRNA expression: 6.55 ± 0.53 PSL/mm^2
DLStr, PCP + drug 1 mg/kg/day
  Kv3.1 α-subunit mRNA expression: 5.99 ± 0.96 PSL/mm^2
DLStr, PCP + drug 3 mg/kg/day
  Kv3.1 α-subunit mRNA expression: 7.13 ± 0.70 PSL/mm^2
DLStr, PCP + drug 10 mg/kg/day
  Kv3.1 α-subunit mRNA expression: 7.46 ± 0.86 PSL/mm^2
IL, PCP + drug 0.3 mg/kg/day
  Kv3.1 α-subunit mRNA expression: 11.64 ± 0.40 PSL/mm^2
IL, PCP + drug 1 mg/kg/day
  Kv3.1 α-subunit mRNA expression: 11.33 ± 0.60 PSL/mm^2
IL, PCP + drug 3 mg/kg/day
  Kv3.1 α-subunit mRNA expression: 12.91 ± 0.38 PSL/mm^2
IL, PCP + drug 10 mg/kg/day
  Kv3.1 α-subunit mRNA expression: 11.55 ± 0.45 PSL/mm^2
IO, PCP + drug 0.3 mg/kg/day
  Kv3.1 α-subunit mRNA expression: 17.52 ± 0.95 PSL/mm^2
IO, PCP + drug 1 mg/kg/day
  Kv3.1 α-subunit mRNA expression: 15.49 ± 0.30 PSL/mm^2
IO, PCP + drug 3 mg/kg/day
  Kv3.1 α-subunit mRNA expression: 17.52 ± 0.36 PSL/mm^2
IO, PCP + drug 10 mg/kg/day
  Kv3.1 α-subunit mRNA expression: 15.30 ± 0.62 PSL/mm^2
M1, PCP + drug 0.3 mg/kg/day
  Kv3.1 α-subunit mRNA expression: 15.33 ± 0.38 PSL/mm^2
M1, PCP + drug 1 mg/kg/day
  Kv3.1 α-subunit mRNA expression: 14.81 ± 0.80 PSL/mm^2
M1, PCP + drug 3 mg/kg/day
  Kv3.1 α-subunit mRNA expression: 17.01 ± 0.75 PSL/mm^2
M1, PCP + drug 10 mg/kg/day
  Kv3.1 α-subunit mRNA expression: 16.51 ± 0.67 PSL/mm^2
M2, PCP + drug 0.3 mg/kg/day
  Kv3.1 α-subunit mRNA expression: 13.23 ± 0.29 PSL/mm^2
M2, PCP + drug 1 mg/kg/day
  Kv3.1 α-subunit mRNA expression: 13.10 ± 0.57 PSL/mm^2
M2, PCP + drug 3 mg/kg/day
  Kv3.1 α-subunit mRNA expression: 14.25 ± 0.81 PSL/mm^2
M2, PCP + drug 10 mg/kg/day
  Kv3.1 α-subunit mRNA expression: 13.04 ± 0.53 PSL/mm^2
MG, PCP + drug 0.3 mg/kg/day
  Kv3.1 α-subunit mRNA expression: 26.82 ± 1.55 PSL/mm^2
MG, PCP + drug 1 mg/kg/day
  Kv3.1 α-subunit mRNA expression: 26.36 ± 0.95 PSL/mm^2
MG, PCP + drug 3 mg/kg/day
  Kv3.1 α-subunit mRNA expression: 26.75 ± 2.02 PSL/mm^2
MG, PCP + drug 10 mg/kg/day
  Kv3.1 α-subunit mRNA expression: 27.36 ± 1.86 PSL/mm^2
MM, PCP + drug 0.3 mg/kg/day
  Kv3.1 α-subunit mRNA expression: 25.02 ± 2.54 PSL/mm^2
MM, PCP + drug 1 mg/kg/day
  Kv3.1 α-subunit mRNA expression: 24.82 ± 0.93 PSL/mm^2
MM, PCP + drug 3 mg/kg/day
  Kv3.1 α-subunit mRNA expression: 20.92 ± 0.93 PSL/mm^2
MM, PCP + drug 10 mg/kg/day
  Kv3.1 α-subunit mRNA expression: 28.12 ± 1.89 PSL/mm^2
Pir, PCP + drug 0.3 mg/kg/day
  Kv3.1 α-subunit mRNA expression: 38.95 ± 2.38 PSL/mm^2
Pir, PCP + drug 1 mg/kg/day
  Kv3.1 α-subunit mRNA expression: 43.16 ± 2.76 PSL/mm^2
Pir, PCP + drug 3 mg/kg/day
  Kv3.1 α-subunit mRNA expression: 38.15 ± 3.31 PSL/mm^2
Pir, PCP + drug 10 mg/kg/day
  Kv3.1 α-subunit mRNA expression: 41.69 ± 1.90 PSL/mm^2
PrL, PCP + drug 0.3 mg/kg/day
  Kv3.1 α-subunit mRNA expression: 12.76 PSL/mm^2
PrL, PCP + drug 1 mg/kg/day
  Kv3.1 α-subunit mRNA expression: 12.17 PSL/mm^2
PrL, PCP + drug 3 mg/kg/day
  Kv3.1 α-subunit mRNA expression: 12.93 PSL/mm^2
PrL, PCP + drug 10 mg/kg/day
  Kv3.1 α-subunit mRNA expression: 12.55 PSL/mm^2
PrL, all doses administered (0.3-10 mg/kg/day)
  effect on PCP-induced decrease in Kv3.1 α-subunit mRNA expression: significantly reversed the PCP-induced decrease back to control levels
RSa, PCP + drug 0.3 mg/kg/day
  Kv3.1 α-subunit mRNA expression: 19.22 ± 1.40 PSL/mm^2
RSa, PCP + drug 1 mg/kg/day
  Kv3.1 α-subunit mRNA expression: 18.90 ± 1.03 PSL/mm^2
RSa, PCP + drug 3 mg/kg/day
  Kv3.1 α-subunit mRNA expression: 17.36 ± 1.55 PSL/mm^2
RSa, PCP + drug 10 mg/kg/day
  Kv3.1 α-subunit mRNA expression: 18.04 ± 0.87 PSL/mm^2
RSg, PCP + drug 0.3 mg/kg/day
  Kv3.1 α-subunit mRNA expression: 20.89 ± 0.95 PSL/mm^2
RSg, PCP + drug 1 mg/kg/day
  Kv3.1 α-subunit mRNA expression: 19.99 ± 0.59 PSL/mm^2
RSg, PCP + drug 3 mg/kg/day
  Kv3.1 α-subunit mRNA expression: 20.73 ± 1.22 PSL/mm^2
RSg, PCP + drug 10 mg/kg/day
  Kv3.1 α-subunit mRNA expression: 19.48 ± 0.64 PSL/mm^2
SN, PCP + drug 0.3 mg/kg/day
  Kv3.1 α-subunit mRNA expression: 11.66 ± 0.91 PSL/mm^2
SN, PCP + drug 1 mg/kg/day
  Kv3.1 α-subunit mRNA expression: 12.98 ± 1.12 PSL/mm^2
SN, PCP + drug 3 mg/kg/day
  Kv3.1 α-subunit mRNA expression: 13.04 ± 1.29 PSL/mm^2
SN, PCP + drug 10 mg/kg/day
  Kv3.1 α-subunit mRNA expression: 15.34 ± 1.58 PSL/mm^2
VMStr, PCP + drug 0.3 mg/kg/day
  Kv3.1 α-subunit mRNA expression: 6.75 ± 0.50 PSL/mm^2
VMStr, PCP + drug 1 mg/kg/day
  Kv3.1 α-subunit mRNA expression: 7.18 ± 0.71 PSL/mm^2
VMStr, PCP + drug 3 mg/kg/day
  Kv3.1 α-subunit mRNA expression: 7.69 ± 0.35 PSL/mm^2
VMStr, PCP + drug 10 mg/kg/day
  Kv3.1 α-subunit mRNA expression: 7.23 ± 0.26 PSL/mm^2
VO, PCP + drug 0.3 mg/kg/day
  Kv3.1 α-subunit mRNA expression: 19.12 ± 0.74 PSL/mm^2
VO, PCP + drug 1 mg/kg/day
  Kv3.1 α-subunit mRNA expression: 17.81 ± 1.08 PSL/mm^2
VO, PCP + drug 3 mg/kg/day
  Kv3.1 α-subunit mRNA expression: 19.32 ± 0.63 PSL/mm^2
VO, PCP + drug 10 mg/kg/day
  Kv3.1 α-subunit mRNA expression: 18.51 ± 1.08 PSL/mm^2
Chronic co-administration with PCP
  effect on PCP-induced decreases in Kv3.1 α-subunit mRNA expression (summary): reversed
dRt and DLStr
  effect on PCP-induced decrease in Kv3.1 α-subunit mRNA expression: neither Y-931 nor olanzapine significantly modulated the PCP-induced effect
dRt, PCP + drug 0.3 mg/kg/day
  Kv3.1 α-subunit mRNA expression: 54.94 ± 1.99 PSL/mm^2
dRt, PCP + drug 1 mg/kg/day
  Kv3.1 α-subunit mRNA expression: 51.68 ± 2.34 PSL/mm^2
dRt, PCP + drug 3 mg/kg/day
  Kv3.1 α-subunit mRNA expression: 53.38 ± 2.99 PSL/mm^2
dRt, PCP + drug 10 mg/kg/day
  Kv3.1 α-subunit mRNA expression: 54.81 ± 1.90 PSL/mm^2
vRt, PCP + drug 0.3 mg/kg/day
  Kv3.1 α-subunit mRNA expression: 46.91 ± 2.73 PSL/mm^2
vRt, PCP + drug 1 mg/kg/day
  Kv3.1 α-subunit mRNA expression: 47.18 ± 2.10 PSL/mm^2
vRt, PCP + drug 3 mg/kg/day
  Kv3.1 α-subunit mRNA expression: 52.57 ± 2.00 PSL/mm^2
vRt, PCP + drug 10 mg/kg/day
  Kv3.1 α-subunit mRNA expression: 49.70 ± 2.76 PSL/mm^2
